Patent publication US20080200444A1, “SOLUBLE EPOXIDE HYDROLASE INHIBITORS” (Arete Therapeutics, Inc., priority 2006, published 2008)

system: soluble epoxide hydrolase (sEH); assay: Fluorescent assay for mouse and human soluble epoxide hydrolase (CMNPC substrate); format: biochemical; details: inhibitor at 50 nM; recombinant sEH, CMNPC substrate 5 μM, 30° C., pH 7.0; mouse or human enzyme not given
Description: Fluorescent Assay for Mouse and Human Soluble Epoxide Hydrolase
Recombinant mouse sEH (MsEH) and human sEH (HsEH) were produced in a baculovirus expression system as previously reported. Grant et al., J. Biol. Chem., 268:17628-17633 (1993); Beetham et al., Arch. Biochem. Biophys., 305:197-201 (1993). The expressed proteins were purified from cell lysate by affinity chromatography. Wixtrom et al., Anal. Biochem., 169:71-80 (1988). Protein concentration was quantified using the Pierce BCA assay using bovine serum albumin as the calibrating standard. The preparations were at least 97% pure as judged by SDS-PAGE and scanning densitometry. They contained no detectable esterase or glutathione transferase activity which can interfere with the assay. The assay was also evaluated with similar results in crude cell lysates or homogenate of tissues.
The IC50s for each inhibitor were according to the following procedure:
Cyano(2-methoxynaphthalen-6-yl)methyl(3-phenyloxiran-2-yl)methyl carbonate (CMNPC; Jones P. D. et. al.; Analytical Biochemistry 2005; 343: pp.66-75)
Bis/Tris HCl 25 mM pH 7.0 containing 0.1 mg/mL of BSA (buffer A)
CMNPC at 0.25 mM in DMSO.
Mother solution of enzyme in buffer A (Mouse sEH at 6 μg/mL and Human sEH at 5 μg/mL).
Inhibitor dissolved in DMSO at the appropriate concentration.
In a black 96 well plate, fill all the wells with 150 μL of buffer A.
Add 2 μL of DMSO in well A2 and A3, and then add 2 μL of inhibitor solution in A1 and A4 through A12.
Add 150 μL of buffer A in row A, then mix several time and transfer 150 μL to row B. Repeat this operation up to row H. The 150 μL removed from row H is discarded.
Add 20 μL of buffer A in column 1 and 2, then add 20 μL of enzyme solution to column 3 to 12.
Incubate the plate for 5 minutes in the plate reader at 30° C.
During incubation prepare the working solution of substrate by mixing 3.68 mL of buffer A (4×0.920 mL) with 266 μL (2×133 μL) of substrate solution).
At t=0, add 30 μL of working substrate solution with multi-channel pipette labeled “Briggs 303” and start the reading ([S]final: 5 μM).
Read with ex: 330 nm (20 nm) and em: 465 nm (20 nm) every 30 second for 10 minutes. The velocities are used to analyze and calculate the IC50s.

| Structure (SMILES) | % Inhibition at 50 nM [%] |
| --- | --- |
| CC(=O)N1CCCC(NC(=O)NC23CC4CC(CC(C4)C2)C3)C1 (stereo not shown) [Compound 1, 1-(1-Acetyl-piperidin-3-yl)-3-adamantan-1-yl-urea] | 69 |
| CS(=O)(=O)N1CCCC(NC(=O)NC23CC4CC(CC(C4)C2)C3)C1 (stereo not shown) [Compound 2, 1-Adamantan-1-yl-3-(1-methanesulfonyl-piperidin-3-yl)-urea] | 76 |
| O=C(NC1CCCN(S(=O)(=O)c2ccc(Cl)cc2)C1)NC12CC3CC(CC(C3)C1)C2 (stereo not shown) [Compound 3, 1-Adamantan-1-yl-3-[1-(4-chloro-benzenesulfonyl)-piperidin-3-yl]-urea] | 94 |
| O=C(NC1CCCN(S(=O)(=O)c2cccc(C(F)(F)F)c2)C1)NC12CC3CC(CC(C3)C1)C2 (stereo not shown) [Compound 4, 1-Adamantan-1-yl-3-[1-(3-trifluoromethyl-benzenesulfonyl)-piperidin-3-yl]-urea] | 95 |
